Measured values published in patent US20230391765A1, “HETEROBIFUNCTIONAL COMPOUNDS AS DEGRADERS OF ENL” (ICAHN SCHOOL OF MEDICINE AT MOUNT SINAI, priority 2020, published 2023).

Key:
Type in all cases: cell-based
[1] = tested on: ENL-dependent MV4; 11 cells; assay: Cell viability (CellTiter-Glo), MV4; 11 cells
Procedure: (§1) MV4; 11 (FIG. 13A), MOLM13 (FIG. 13B) and Jurkat (FIG. 13C) cells were seeded at 2×10^5 cells/mL density and treated with DMSO or indicated compounds 0.5, 1, 2 and 4 μM for 72 h. Cell viability was measured using CellTiter-Glo reagent (Promega) and relative cell viability was calculated by normalization to DMSO samples.
(§2) ENL-dependent MV4; 11 cells were seeded at 2×10^5 cells/mL density and treated with DMSO or the indicated compounds at 0, 1.25, 2.5, 5 and 10 μM for 72 h. Cell viability was measured using CellTiter-Glo reagent (Promega) and relative cell viability was calculated by normalization to DMSO samples.
as §2, with “11 and ENL-independent Jurkat” for “11”, “or” for “or the”, “10 nM, 100 nM, 1 μM” for “0, 1.25, 2.5, 5”, “3 days (A) or 6 days (B).” for “72 h.”
(§3) MV4; 11 or MOLM13 cells were seeded at 0.2×10^6 cells/mL density. Cells were treated with DMSO or ENL degraders at indicated concentrations. Each treatment was done in triplicates. After 72 h treatment, 100 μL of cell suspension from each treatment was mixed with 25 μL of CellTiter-Glo reagent (Promega) and incubated for 10 min before the luminescence signals were detected on a plate reader.

[2] = tested on: ENL-dependent MOLM13 leukemia cells; assay: Cell viability (CellTiter-Glo), MOLM13 cells; conditions: MOLM13 cells, 0.5, 1, 2 and 4 μM for 72 h
Procedure: as §1, §3

[3] = target: T1, ENL (Homo sapiens, UniProt Q03111); assay: Western blot of ENL protein levels in MV4; 11 cells; conditions: 11 cells; for ENL protein level after long treatment: 1 μM for 48 and 72 h
T1 construct: Cells were lysed and expression of endogenous ENL was assessed by Western blot analysis; host or cells: MV4;11
T1 sequence (Q03111 1-559): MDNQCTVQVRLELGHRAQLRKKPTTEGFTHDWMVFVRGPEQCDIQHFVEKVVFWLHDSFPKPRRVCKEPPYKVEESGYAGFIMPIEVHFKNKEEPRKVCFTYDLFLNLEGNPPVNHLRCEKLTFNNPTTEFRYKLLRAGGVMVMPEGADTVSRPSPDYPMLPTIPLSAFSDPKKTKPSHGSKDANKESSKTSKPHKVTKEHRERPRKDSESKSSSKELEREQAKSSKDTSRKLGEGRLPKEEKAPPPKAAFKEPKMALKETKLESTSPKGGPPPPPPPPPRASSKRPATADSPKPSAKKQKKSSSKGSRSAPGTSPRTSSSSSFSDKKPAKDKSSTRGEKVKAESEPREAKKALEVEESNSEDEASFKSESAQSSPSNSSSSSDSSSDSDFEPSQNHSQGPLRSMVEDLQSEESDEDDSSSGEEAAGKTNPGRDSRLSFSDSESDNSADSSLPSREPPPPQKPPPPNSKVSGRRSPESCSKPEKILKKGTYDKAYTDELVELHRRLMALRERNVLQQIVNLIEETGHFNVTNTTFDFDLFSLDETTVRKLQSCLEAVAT
Procedure: MV4; 11 cells were treated with DMSO or the indicated compounds (the same panel of ENL degraders as shown in FIG. 4) at 1 μM and 10 μM for 24 h. Cells were lysed and expression of ENL was assessed by Western blot analysis.
DMSO treated cells were used as control.
MV4; 11 cells were treated with LQ076-122, or LQ081-107 at 0.3, 1, 3, 10, and 30 μM for 24 h. DMSO treated cells were used as control. Cells were lysed and expression of ENL and GAS41 was assessed by Western analysis.
MV4; 11 cells were treated with DMSO or the indicated compounds at 1 μM and 10 μM for 6 h. Cells were lysed and expression of endogenous ENL was assessed by Western blot analysis.
Cells were treated with 1 μM of ENL degrader with or without 1 μM proteasome inhibitor MG132 for 6 h.
(§4) ENL degraders were dissolved in DMSO. DMSO with no degraders was used as the control. 1×10^6 leukemia cells were seeded in 5 mL medium. For prescreening of compounds, each test compound was added to the medium at 1 μM and 10 μM. Cells were collected after 24 h treatment. For the concentration-dependent treatment, candidate compounds were added to the medium at a series of concentration as indicated in figures. Cells were collected after 24 h treatment. For the time-course treatment, candidate compounds were added to the medium at a final concentration of 4 μM (MV4; 11 cells) or 8 μM (MOLM13 cells). Cells were collected at the indicated timepoints (in hours: 12, 16, 20, 24 and 36 h).
(§5) After ENL degrader treatment, cells were collected, lysed, and total cell lysates were used for Western blot. The following primary antibodies were used: ENL (Cell Signaling Technology), GAS41 (Santa Cruz), GAPDH (Santa Cruz), β-actin (Sigma). Blots were detected using HRP-conjugated secondary antibodies.

[4] = target: T1, ENL; assay: Western blot of ENL protein levels in MOLM13 cells; conditions: for reduction of ENL protein levels: 1 nM to 10 μM for 6 h; for ENL protein level after long treatment: 1 μM for 48 and 72 h
Procedure: MOLM13 cells were treated with LQ076-122 or LQ081-108 at 0, 0.25, 0.5, 1, 1.5, 2, 2.5, 3, 4 and 8 μM for 24 h.
MOLM13 cells were treated with DMSO or 8 μM of LQ076-122 for 12, 16, 20, 24 and 36 h.
MV4; 11, MOLM13 and Jurkat cells were treated with LQ108-69, LQ108-71, LQ108-72, LQ126-62 and LQ126-63 at 0, 1 nM, 10 nM, 100 nM, 1 μM, and 10 μM doses for 6 h. DMSO was used as negative control.
as §4, §5

[5] = target: T1, ENL; assay: Western blot of ENL protein levels in Jurkat cells; conditions: for reduction of ENL protein levels: 1 nM to 10 μM for 6 h; for ENL protein level after long treatment: 1 μM for 48 and 72 h
Description: […] DMSO was used as negative control.
as §5

[6] = 11 cells, 1.25, 2.5, 5 and 10 μM for 72 h

| ENL protein level after long treatment [4] | ENL protein level after long treatment [5] | ENL protein level after long treatment [3] | effect of proteasome inhibitor MG132 on the ENL degradation induced by the degrader ([3]; 1 μM degrader with or without 1 μM MG132 for 6 h) | Structure (SMILES) | suppression of cell growth (relative cell viability) ([1]; 11 cells, 0.5, 1, 2 and 4 μM for 72 h) | suppression of cell growth (relative cell viability) [2] | reduction of ENL protein levels ([3]; 0-8 μM for 24 h) | reduction of ENL protein levels ([3]; 10 μM, 24 h) | reduction of ENL protein levels [4] | suppression of cell growth (relative cell viability) [1, 6] | reduction of ENL protein levels [5] | reduction of ENL protein levels ([3]; 1 nM to 10 μM for 6 h) |
| --- | --- | --- | --- | --- | --- | --- | --- | --- | --- | --- | --- | --- |
| – | – | – | – | Cc1ncsc1-c1ccc([C@H](C)NC(=O)[C@@H]2C[C@@H](O)CN2C(=O)[C@@H](NC(=O)CCCCCCCCCCCNC(=O)c2ccc(C(=O)Nc3ccc4[nH]c(CN5CCC[C@@H]5C)nc4c3)cc2)C(C)(C)C)cc1 [LQ081-109, N^1-(12-(((S)-1-((2S,4R)-4-hydroxy-2-(((S)-1-(4-(4-methylthiazol-5-yl)phenyl)ethyl)carbamoyl)pyrrolidin-1-yl)-3,3-dimethyl-1-oxobutan-2-yl)amino)-12-oxododecyl)-N^4-(2-(((S)-2-methylpyrrolidin-1-yl)methyl)-1H-benzo[d]imidazol-5-yl)terephthalamide] | selectively suppressed cell growth | selectively suppressed cell growth | reduced ENL protein levels in a concentration-dependent manner | effective in reducing ENL protein levels | – | – | – | – |
| maintained the ENL protein at low levels | maintained the ENL protein at low levels | maintained the ENL protein at low levels | – | Cc1ncsc1-c1ccc([C@H](CC(=O)NCCCCCCCCNC(=O)c2ccc3c(c2)[C@H](NC(=O)c2cc(-c4ccc(C(=O)N(C)C)c(O)c4)on2)CC3)NC(=O)[C@@H]2C[C@@H](O)CN2C(=O)[C@@H](NC(=O)C2(F)CC2)C(C)(C)C)cc1 [LQ108-71, 5-(4-(dimethylcarbamoyl)-3-hydroxyphenyl)-N—((R)-6-((8-((S)-3-((2S,4R)-1-((S)-2-(1-fluorocyclopropane-1-carboxamido)-3,3-dimethylbutanoyl)-4-hydroxypyrrolidine-2-carboxamido)-3-(4-(4-methylthiazol-5-yl)phenyl)propanamido)octyl)carbamoyl)-2,3-dihydro-1H-inden-1-yl)isoxazole-3-carboxamide] | – | – | – | – | reduced ENL protein levels in a concentration-dependent manner | significantly suppressed MV4; 11 cell growth at low micromolar concentration | reduced ENL protein levels in a concentration-dependent manner | reduced ENL protein levels in a concentration-dependent manner |
| maintained the ENL protein at low levels | maintained the ENL protein at low levels | maintained the ENL protein at low levels | – | Cc1ncsc1-c1ccc([C@H](CC(=O)NCCCCCCCCCNC(=O)c2ccc3c(c2)[C@H](NC(=O)c2cc(-c4ccc(C(=O)N(C)C)c(O)c4)on2)CC3)NC(=O)[C@@H]2C[C@@H](O)CN2C(=O)[C@@H](NC(=O)C2(F)CC2)C(C)(C)C)cc1 [LQ108-72, 5-(4-(dimethylcarbamoyl)-3-hydroxyphenyl)-N—((R)-6-((9-((S)-3-((2S,4R)-1-((S)-2-(1-fluorocyclopropane-1-carboxamido)-3,3-dimethylbutanoyl)-4-hydroxypyrrolidine-2-carboxamido)-3-(4-(4-methylthiazol-5-yl)phenyl)propanamido)nonyl)carbamoyl)-2,3-dihydro-1H-inden-1-yl)isoxazole-3-carboxamide] | – | – | – | – | reduced ENL protein levels in a concentration-dependent manner | significantly suppressed MV4; 11 cell growth at low micromolar concentration | reduced ENL protein levels in a concentration-dependent manner | reduced ENL protein levels in a concentration-dependent manner |
| maintained the ENL protein at low levels | maintained the ENL protein at low levels | maintained the ENL protein at low levels | partially blocks the ENL degradation | Cc1ncsc1-c1ccc(CNC(=O)[C@@H]2C[C@@H](O)CN2C(=O)[C@@H](NC(=O)CCCCCCCCCNC(=O)c2ccc3c(c2)[C@H](NC(=O)c2cc(-c4ccc(C(=O)N(C)C)c(O)c4)on2)CC3)C(C)(C)C)cc1 [LQ126-62, 5-(4-(dimethylcarbamoyl)-3-hydroxyphenyl)-N—((R)-6-((10-(((S)-1-((2S,4R)-4-hydroxy-2-((4-(4-methylthiazol-5-yl)benzyl)carbamoyl)pyrrolidin-1-yl)-3,3-dimethyl-1-oxobutan-2-yl)amino)-10-oxodecyl)carbamoyl)-2,3-dihydro-1H-inden-1-yl)isoxazole-3-carboxamide] | – | – | – | – | reduced ENL protein levels in a concentration-dependent manner | significantly suppressed MV4; 11 cell growth at low micromolar concentration | reduced ENL protein levels in a concentration-dependent manner | reduced ENL protein levels in a concentration-dependent manner |
